Reference: ChEMBL document CHEMBL2331489, “Novel cinnoline-based inhibitors of LRRK2 kinase activity” (Bioorg Med Chem Lett, 2013)

Columns and labels:
[1] = target: T1, Dual specificity protein kinase TTK (Homo sapiens) (UniProt P33981); test: Inhibition of TTK (unknown origin) at 10 uM relative to control
T1 sequence (whole entry): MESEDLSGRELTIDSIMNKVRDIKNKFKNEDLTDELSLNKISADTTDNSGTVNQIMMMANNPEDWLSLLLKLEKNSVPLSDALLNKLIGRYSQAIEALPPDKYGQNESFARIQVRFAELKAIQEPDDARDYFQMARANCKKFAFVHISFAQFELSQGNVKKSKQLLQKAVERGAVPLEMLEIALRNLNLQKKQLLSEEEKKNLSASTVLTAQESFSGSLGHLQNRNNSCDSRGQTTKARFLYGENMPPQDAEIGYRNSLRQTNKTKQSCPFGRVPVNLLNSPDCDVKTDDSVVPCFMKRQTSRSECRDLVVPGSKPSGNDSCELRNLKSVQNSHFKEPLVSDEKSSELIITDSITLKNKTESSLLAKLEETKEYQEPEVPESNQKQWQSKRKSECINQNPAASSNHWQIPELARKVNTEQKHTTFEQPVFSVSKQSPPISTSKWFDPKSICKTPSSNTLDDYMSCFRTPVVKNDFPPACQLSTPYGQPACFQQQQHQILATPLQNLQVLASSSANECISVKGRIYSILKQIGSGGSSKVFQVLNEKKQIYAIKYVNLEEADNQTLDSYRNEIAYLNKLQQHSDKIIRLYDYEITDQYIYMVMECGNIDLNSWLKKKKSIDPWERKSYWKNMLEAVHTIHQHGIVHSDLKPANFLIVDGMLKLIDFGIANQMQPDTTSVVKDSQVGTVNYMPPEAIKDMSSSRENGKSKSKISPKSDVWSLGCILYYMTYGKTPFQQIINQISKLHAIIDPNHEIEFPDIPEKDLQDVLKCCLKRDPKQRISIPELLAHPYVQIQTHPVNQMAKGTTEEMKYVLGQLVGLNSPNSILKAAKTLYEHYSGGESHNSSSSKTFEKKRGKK

[2] = target: T2, Serine/threonine-protein kinase 3 (Homo sapiens) (UniProt Q13188); test: Inhibition of STK3 (unknown origin) at 10 uM relative to control
T2 sequence (whole entry): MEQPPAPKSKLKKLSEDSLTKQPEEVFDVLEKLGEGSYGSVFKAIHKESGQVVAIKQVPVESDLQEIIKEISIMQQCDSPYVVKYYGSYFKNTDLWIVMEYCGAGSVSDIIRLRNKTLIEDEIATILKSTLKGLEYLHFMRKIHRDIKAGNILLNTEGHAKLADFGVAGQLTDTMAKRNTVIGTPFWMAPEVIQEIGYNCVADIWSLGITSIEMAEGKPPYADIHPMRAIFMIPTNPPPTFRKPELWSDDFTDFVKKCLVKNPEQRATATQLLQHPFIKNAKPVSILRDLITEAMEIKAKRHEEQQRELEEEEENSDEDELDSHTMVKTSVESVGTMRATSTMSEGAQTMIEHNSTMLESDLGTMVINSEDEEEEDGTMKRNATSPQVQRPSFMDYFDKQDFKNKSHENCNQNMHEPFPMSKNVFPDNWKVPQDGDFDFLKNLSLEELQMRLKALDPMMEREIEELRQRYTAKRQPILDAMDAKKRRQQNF

[3] = target: Rho-associated protein kinase 2 (Homo sapiens) (UniProt O75116); test: Inhibition of ROCK2 (unknown origin) at 10 uM relative to control
[4] = target: Receptor-interacting serine/threonine-protein kinase 2 (Homo sapiens) (UniProt O43353); test: Inhibition of RIPK2 (unknown origin) at 10 uM relative to control
Sequence of Receptor-interacting serine/threonine-protein kinase 2 (Homo sapiens) (O43353 whole entry): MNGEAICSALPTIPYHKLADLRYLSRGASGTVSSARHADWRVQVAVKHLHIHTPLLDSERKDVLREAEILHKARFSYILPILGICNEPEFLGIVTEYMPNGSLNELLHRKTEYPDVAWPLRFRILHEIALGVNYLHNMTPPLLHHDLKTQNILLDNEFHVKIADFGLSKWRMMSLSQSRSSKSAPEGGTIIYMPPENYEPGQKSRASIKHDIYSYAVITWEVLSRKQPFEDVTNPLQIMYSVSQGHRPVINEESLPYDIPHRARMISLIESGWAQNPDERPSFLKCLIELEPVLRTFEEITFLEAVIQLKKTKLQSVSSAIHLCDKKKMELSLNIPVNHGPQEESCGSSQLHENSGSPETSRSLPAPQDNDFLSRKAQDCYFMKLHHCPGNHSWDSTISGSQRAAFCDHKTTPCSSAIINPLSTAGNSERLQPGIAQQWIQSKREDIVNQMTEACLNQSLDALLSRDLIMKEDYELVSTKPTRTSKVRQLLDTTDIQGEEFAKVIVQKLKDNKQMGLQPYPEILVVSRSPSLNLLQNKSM

[5] = target: cAMP-dependent protein kinase catalytic subunit alpha (Homo sapiens) (UniProt P17612); test: Inhibition of PRKACA (unknown origin) at 10 uM relative to control
[6] = target: Protein kinase C beta type (Homo sapiens) (UniProt P05771); test: Inhibition of PRKCbeta1 (unknown origin) at 10 uM relative to control
[7] = target: Serine/threonine-protein kinase PLK1 (Homo sapiens) (UniProt P53350); test: Inhibition of PLK1 (unknown origin) at 10 uM relative to control
Sequence of Serine/threonine-protein kinase PLK1 (Homo sapiens) (P53350 whole entry): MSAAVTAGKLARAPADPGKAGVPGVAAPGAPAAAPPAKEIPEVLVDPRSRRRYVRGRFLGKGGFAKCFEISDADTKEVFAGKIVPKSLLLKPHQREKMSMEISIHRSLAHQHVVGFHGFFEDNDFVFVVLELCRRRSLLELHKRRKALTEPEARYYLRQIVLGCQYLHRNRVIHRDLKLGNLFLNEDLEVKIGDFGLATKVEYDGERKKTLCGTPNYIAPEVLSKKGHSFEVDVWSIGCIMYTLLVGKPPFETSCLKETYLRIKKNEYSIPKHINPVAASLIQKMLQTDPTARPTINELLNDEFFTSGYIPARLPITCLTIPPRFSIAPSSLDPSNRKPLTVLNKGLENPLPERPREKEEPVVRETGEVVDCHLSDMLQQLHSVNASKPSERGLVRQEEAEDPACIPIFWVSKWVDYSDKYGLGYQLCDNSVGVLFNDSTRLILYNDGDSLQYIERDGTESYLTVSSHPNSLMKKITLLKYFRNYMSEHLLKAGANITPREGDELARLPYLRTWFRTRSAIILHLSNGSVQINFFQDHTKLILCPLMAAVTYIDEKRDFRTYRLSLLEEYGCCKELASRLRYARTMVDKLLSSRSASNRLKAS

[8] = target: Serine/threonine-protein kinase MARK2 (Homo sapiens) (UniProt Q7KZI7); test: Inhibition of MARK2 (unknown origin) at 10 uM relative to control
[9] = target: Leucine-rich repeat serine/threonine-protein kinase 2 (Homo sapiens, UniProt Q5S007); test: Inhibition of LRRK2 (unknown origin) at 10 uM relative to control
Sequence of Leucine-rich repeat serine/threonine-protein kinase 2 (Q5S007 whole entry): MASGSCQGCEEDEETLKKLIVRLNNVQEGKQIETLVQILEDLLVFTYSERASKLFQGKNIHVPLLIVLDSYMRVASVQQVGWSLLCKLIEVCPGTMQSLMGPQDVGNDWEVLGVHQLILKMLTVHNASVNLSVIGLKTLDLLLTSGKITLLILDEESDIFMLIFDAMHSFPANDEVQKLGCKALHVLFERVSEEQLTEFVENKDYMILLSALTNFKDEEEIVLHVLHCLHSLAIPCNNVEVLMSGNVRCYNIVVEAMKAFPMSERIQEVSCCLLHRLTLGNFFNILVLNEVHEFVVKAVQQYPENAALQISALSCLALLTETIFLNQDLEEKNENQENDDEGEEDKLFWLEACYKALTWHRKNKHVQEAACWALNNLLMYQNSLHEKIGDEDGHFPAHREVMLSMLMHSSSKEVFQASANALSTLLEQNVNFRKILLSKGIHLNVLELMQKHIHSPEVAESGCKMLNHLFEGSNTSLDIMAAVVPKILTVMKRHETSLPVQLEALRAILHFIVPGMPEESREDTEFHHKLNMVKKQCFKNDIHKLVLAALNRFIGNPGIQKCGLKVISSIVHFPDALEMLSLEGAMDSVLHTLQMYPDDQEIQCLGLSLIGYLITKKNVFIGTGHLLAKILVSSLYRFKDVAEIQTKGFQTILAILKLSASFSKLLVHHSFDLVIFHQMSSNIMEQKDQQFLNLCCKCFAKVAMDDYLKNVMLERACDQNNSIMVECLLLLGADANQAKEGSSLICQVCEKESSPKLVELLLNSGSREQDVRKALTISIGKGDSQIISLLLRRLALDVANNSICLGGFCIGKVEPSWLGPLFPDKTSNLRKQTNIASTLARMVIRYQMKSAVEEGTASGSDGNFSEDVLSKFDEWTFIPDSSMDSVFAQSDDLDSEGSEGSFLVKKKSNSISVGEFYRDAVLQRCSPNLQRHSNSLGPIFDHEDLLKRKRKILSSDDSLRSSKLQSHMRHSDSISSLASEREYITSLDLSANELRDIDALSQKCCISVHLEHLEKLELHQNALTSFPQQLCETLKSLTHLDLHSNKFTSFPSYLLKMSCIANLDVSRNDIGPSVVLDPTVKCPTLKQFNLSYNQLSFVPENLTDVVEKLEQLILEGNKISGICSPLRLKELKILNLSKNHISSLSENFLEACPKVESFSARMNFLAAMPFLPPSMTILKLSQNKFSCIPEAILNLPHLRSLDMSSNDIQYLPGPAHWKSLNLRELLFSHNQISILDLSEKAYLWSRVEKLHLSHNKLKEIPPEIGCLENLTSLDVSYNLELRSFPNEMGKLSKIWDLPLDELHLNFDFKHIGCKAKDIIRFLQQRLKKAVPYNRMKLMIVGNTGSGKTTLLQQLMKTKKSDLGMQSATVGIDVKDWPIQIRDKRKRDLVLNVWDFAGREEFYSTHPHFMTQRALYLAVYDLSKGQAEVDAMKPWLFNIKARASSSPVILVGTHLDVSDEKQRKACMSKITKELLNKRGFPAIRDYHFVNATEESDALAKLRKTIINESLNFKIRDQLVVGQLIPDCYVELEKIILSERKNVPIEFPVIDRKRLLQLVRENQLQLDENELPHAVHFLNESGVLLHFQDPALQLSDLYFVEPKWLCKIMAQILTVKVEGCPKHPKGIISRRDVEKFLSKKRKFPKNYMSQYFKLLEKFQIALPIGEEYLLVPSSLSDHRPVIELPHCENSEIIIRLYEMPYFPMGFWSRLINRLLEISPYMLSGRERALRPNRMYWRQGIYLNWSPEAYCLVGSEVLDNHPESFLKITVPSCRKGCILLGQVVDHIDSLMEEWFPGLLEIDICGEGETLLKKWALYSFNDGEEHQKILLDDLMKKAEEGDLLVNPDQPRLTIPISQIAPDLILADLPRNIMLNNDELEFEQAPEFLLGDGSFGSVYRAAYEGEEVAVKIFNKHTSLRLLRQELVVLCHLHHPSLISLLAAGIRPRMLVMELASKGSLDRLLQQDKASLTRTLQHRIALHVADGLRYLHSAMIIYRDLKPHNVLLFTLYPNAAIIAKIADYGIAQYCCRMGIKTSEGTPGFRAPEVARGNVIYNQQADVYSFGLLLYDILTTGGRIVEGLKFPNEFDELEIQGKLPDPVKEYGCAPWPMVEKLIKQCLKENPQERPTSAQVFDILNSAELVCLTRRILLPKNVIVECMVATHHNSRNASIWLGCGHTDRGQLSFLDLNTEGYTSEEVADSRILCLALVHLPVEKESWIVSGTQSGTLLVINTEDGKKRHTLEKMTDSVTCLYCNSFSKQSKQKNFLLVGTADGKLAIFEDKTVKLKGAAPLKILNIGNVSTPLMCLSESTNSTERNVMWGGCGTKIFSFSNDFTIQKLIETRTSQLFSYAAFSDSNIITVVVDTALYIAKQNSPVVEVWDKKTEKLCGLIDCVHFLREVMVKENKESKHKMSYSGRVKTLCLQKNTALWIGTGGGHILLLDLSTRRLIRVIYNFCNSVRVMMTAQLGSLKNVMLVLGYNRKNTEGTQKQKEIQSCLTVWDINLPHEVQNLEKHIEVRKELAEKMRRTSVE

[10] = target: Insulin receptor (Homo sapiens) (UniProt P06213); test: Inhibition of INSR (unknown origin) at 10 uM relative to control
Sequence of Insulin receptor (Homo sapiens) (P06213 28-758 limits assumed): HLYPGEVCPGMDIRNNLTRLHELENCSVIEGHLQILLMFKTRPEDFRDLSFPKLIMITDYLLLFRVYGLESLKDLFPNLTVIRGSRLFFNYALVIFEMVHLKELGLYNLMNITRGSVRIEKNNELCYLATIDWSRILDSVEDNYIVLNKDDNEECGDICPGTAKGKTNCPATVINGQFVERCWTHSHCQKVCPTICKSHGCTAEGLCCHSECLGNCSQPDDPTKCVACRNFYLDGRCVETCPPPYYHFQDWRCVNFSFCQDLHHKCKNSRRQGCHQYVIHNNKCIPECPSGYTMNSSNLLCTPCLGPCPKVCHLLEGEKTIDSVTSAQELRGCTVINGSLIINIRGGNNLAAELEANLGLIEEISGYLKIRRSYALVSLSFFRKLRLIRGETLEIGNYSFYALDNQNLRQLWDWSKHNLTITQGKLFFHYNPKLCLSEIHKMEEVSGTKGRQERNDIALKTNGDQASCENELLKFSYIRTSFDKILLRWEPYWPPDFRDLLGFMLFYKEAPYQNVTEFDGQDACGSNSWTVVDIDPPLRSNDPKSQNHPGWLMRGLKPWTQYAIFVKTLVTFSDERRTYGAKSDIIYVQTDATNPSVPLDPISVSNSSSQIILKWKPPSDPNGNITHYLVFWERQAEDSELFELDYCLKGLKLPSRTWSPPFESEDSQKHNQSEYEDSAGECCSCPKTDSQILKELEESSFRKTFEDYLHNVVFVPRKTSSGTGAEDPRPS
Sequence of Insulin receptor (Homo sapiens) (P06213 763-1382 limits assumed): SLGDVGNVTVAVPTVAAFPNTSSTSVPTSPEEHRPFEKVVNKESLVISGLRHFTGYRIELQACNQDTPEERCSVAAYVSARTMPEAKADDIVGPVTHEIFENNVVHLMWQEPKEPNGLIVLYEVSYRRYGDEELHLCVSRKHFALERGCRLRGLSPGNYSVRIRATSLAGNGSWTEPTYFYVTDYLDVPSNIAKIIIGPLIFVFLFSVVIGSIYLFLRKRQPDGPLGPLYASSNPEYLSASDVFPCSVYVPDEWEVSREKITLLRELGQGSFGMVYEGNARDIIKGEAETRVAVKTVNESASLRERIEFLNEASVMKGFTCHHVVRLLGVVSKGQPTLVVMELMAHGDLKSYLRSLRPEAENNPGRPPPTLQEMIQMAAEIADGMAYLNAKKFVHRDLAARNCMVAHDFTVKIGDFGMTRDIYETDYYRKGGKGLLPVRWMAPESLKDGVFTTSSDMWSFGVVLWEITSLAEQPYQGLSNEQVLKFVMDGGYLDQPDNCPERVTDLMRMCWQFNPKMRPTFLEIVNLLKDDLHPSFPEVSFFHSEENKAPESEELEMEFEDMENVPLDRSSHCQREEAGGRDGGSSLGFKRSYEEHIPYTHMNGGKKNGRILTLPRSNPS

[11] = target: Macrophage colony-stimulating factor 1 receptor (Homo sapiens, UniProt P07333); test: Inhibition of CSF1R (unknown origin) at 10 uM relative to control
[12] = target: Cyclin-dependent kinase 2/cyclin A (Homo sapiens) (UniProt P24941+P20248+P78396); test: Inhibition of CDK2/cyclin A (unknown origin) at 10 uM relative to control; assay type: protein-complex assay
[13] = target: Cyclin-dependent kinase 1/cyclin B1 (Homo sapiens) (UniProt P06493+P14635); test: Inhibition of CDK1/cyclin B (unknown origin) at 10 uM relative to control; assay type: protein-complex assay
[14] = target: Calcium/calmodulin-dependent protein kinase type II subunit alpha (Homo sapiens) (UniProt Q9UQM7); test: Inhibition of CAMK2alpha (unknown origin) at 10 uM relative to control
[15] = target: T3, Aurora kinase A (Homo sapiens) (UniProt O14965); test: Inhibition of Aurora A (unknown origin) at 10 uM relative to control
T3 sequence (whole entry): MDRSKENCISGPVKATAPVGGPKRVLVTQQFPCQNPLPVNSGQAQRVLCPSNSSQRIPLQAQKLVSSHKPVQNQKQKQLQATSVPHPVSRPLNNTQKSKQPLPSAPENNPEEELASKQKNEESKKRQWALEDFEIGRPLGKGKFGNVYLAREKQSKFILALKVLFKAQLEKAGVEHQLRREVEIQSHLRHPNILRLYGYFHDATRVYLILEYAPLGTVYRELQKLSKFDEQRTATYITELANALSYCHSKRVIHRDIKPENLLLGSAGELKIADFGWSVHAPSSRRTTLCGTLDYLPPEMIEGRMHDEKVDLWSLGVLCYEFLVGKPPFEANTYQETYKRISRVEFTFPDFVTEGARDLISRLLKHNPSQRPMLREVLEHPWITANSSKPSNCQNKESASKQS

Row | inhibition [1] [%] | inhibition [2] [%] | inhibition [3] [%] | inhibition [4] [%] | inhibition [5] [%] | inhibition [6] [%] | inhibition [7] [%] | inhibition [8] [%] | inhibition [9] [%] | inhibition [10] [%] | inhibition [11] [%] | inhibition [12] [%] | inhibition [13] [%] | inhibition [14] [%] | inhibition [15] [%] | Compound
1 | 97 | 100 | 99 | 98 | 53 | 40 | 45 | 87 | 96 | 39 | 96 | 101 | 102 | 92 | 100 | CC(C)Nc1c(C(N)=O)nnc2ccc(-c3cn[nH]c3)cc12
2 | 67 | 42 | 78 | 44 | -2 | 0 | 3 | 81 | 99 | -1 | 97 | 5 | 3 | 17 | 81 | CC(C)Nc1c(C(N)=O)nnc2cc(N3CCOCC3)ccc12
3 | 93 | 99 | 88 | 91 | 43 | 43 | 25 | 88 | 95 | 13 | 90 | 98 | 102 | 77 | 83 | CC(C)Nc1c(C(N)=O)nnc2ccc(-c3ccncc3)cc12
4 | 94 |  | 97 | 76 | 29 | 15 | 33 | 95 |  | 33 |  | 61 | 40 | 14 | 90 | CC(C)Nc1c(C(N)=O)nnc2cc(-c3ccncc3)ccc12
5 | 60 | 66 | 53 | 15 | 0 | -2 | 14 | 53 | 97 | 7 | 100 | 3 | 7 | 11 | 34 | CS(=O)(=O)c1ccc(-c2ccc3c(NC4CCC4)c(C(N)=O)nnc3c2)cc1
6 | 50 | 100 | 86 | 52 | 6 | 8 | 1 | 94 | 96 | 4 | 98 | 5 | 1 | 0 | 60 | CC(C)Nc1c(C(N)=O)cnc2cc(-c3ccc(S(C)(=O)=O)cc3)ccc12
7 | 35 | 91 | 70 | 28 | -1 | 0 | 1 | 80 | 97 | 0 | 100 |  | -3 | 15 | 68 | C[C@@H](Nc1c(C(N)=O)nnc2cc(-c3ccc(S(C)(=O)=O)cc3)ccc12)C1CC1
